Experimental data reported in ChEMBL document CHEMBL1147123, “Lipoxygenase inhibitory constituents of the fruits of noni (Morinda citrifolia) collected in Tahiti” (J Nat Prod, 2007).

Experiments:
[1] = biological target: T1, Polyunsaturated fatty acid lipoxygenase ALOX15 (Oryctolagus cuniculus, UniProt P12530); experiment: Inhibition of 15LOX in rabbit reticulocytes by spectrophotometric assay
T1 sequence (P12530 whole entry): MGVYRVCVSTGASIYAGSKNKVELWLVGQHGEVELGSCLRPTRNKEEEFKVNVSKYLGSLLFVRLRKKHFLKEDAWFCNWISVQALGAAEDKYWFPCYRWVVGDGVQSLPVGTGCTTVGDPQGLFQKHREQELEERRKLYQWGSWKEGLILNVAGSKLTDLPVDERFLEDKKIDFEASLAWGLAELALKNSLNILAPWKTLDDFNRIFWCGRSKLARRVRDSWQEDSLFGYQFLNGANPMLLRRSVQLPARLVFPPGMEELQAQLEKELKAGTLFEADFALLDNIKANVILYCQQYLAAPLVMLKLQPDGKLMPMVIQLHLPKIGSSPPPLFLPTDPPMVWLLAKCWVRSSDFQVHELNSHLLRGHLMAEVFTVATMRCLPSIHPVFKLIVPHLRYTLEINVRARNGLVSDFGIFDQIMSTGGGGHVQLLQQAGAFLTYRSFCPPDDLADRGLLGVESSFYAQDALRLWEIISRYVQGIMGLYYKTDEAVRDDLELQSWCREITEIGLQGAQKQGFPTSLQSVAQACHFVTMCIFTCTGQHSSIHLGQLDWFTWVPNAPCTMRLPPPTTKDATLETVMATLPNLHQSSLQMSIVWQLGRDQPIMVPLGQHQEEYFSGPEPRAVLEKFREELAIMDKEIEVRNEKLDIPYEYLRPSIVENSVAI

[2] = biological target: T2, Prostaglandin G/H synthase 2 (Homo sapiens, UniProt P35354); experiment: Inhibition of human recombinant COX2 expressed in insect Sf21 cells by EIA assay
T2 sequence (P35354 whole entry): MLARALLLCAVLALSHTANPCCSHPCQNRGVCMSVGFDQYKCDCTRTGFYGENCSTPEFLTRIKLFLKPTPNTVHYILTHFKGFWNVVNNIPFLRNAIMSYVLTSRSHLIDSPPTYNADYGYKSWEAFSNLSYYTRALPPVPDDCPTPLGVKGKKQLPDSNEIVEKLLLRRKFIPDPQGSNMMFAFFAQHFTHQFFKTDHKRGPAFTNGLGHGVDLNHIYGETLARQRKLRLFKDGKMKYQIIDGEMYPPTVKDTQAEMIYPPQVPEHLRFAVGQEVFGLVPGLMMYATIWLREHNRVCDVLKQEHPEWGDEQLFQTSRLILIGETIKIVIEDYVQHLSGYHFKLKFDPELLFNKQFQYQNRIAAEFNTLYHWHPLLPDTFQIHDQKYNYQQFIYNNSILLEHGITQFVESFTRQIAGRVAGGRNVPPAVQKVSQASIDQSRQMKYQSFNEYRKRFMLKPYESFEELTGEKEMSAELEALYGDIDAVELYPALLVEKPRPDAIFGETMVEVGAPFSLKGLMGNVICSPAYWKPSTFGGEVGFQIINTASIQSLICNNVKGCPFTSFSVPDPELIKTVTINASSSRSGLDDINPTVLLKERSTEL

[3] = biological target: T3, Polyunsaturated fatty acid 5-lipoxygenase (Homo sapiens, UniProt P09917); experiment: Inhibition of 5LOX in human PBMC by EIA assay
T3 sequence (P09917 whole entry): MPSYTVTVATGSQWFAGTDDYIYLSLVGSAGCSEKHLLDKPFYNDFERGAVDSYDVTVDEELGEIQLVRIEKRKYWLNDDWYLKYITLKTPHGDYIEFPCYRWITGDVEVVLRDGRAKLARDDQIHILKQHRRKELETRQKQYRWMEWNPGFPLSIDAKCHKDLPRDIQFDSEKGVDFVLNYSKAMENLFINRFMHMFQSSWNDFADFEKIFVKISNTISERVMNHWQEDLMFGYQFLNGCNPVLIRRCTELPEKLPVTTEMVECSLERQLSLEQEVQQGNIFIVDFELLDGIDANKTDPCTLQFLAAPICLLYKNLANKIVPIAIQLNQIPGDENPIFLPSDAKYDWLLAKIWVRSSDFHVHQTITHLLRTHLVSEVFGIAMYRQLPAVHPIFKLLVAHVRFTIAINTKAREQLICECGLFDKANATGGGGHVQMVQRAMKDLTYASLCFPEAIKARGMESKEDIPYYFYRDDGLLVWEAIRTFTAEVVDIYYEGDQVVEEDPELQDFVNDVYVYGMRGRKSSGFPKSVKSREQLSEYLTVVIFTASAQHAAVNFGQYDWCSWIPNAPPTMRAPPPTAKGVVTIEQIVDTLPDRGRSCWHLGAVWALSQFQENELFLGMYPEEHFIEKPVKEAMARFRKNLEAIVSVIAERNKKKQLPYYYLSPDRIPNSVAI

Compound	IC50 [1] [µM]	IC50 [2] [µM]	IC50 [3] [µM]
COc1cc([C@@H]2OC[C@H]3[C@@H]2CO[C@H]3c2ccc(O)c(OC)c2)ccc1O [(-)-PINORESINOL]			13.8
COc1cc2oc(=O)ccc2cc1O [ISOSCOPOLETIN]		> 100	> 100
O=c1c(O)c(-c2ccc(O)cc2)oc2cc(O)cc(O)c12 [KAEMPFEROL]		> 100	
COc1cc2ccc(=O)oc2cc1O [SCOPOLETIN]		> 100	> 100

Next, values leading:

IC50 [1] [µM]	IC50 [2] [µM]	IC50 [3] [µM]	Compound
0.52	90.2	5.6	O=C1O[C@H](c2ccc(O)c(O)c2)[C@H]2CO[C@H](c3ccc(O)c(O)c3)[C@@H]12
0.52	> 100	5.9	Oc1ccc([C@@H]2OC[C@@H]3[C@H]2CO[C@H]3c2ccc(O)c(O)c2)cc1O
0.76	73.9	9.2	OC[C@@H]1[C@@H]([C@H](O)c2ccc(O)c(O)c2)CO[C@@H]1c1ccc(O)c(O)c1
